Tests used:
human DJ-1 promoter [1] = assay: DJ-1 promoter luciferase reporter assay in SH-SY5Y cells stably expressing −1000DJ-Luc; type: cell-based; conditions: 24 hours; for DJ-1 promoter-driven luciferase activity normalized to β-galactosidase activity: SH-SY5Y cells stably expressing −1000DJ-Luc, increasing doses; for Luciferase expression directed by the human DJ-1 promoter, fold change relative to untreated: SH-SY5Y −1000DJ-Luc vs 0DJ-Luc, normalized to total protein content (FIG. 6)
Description: (§1) To develop a cell-based assay system where one can identify agents that transcriptionally activate DJ-1, a plasmid vector (−1000DJ-Luc) was made that expressed a luciferase reporter gene directed by the human DJ-1 promoter containing 1000 base pairs upstream and 65 base pairs downstream sequences (−1000 to +65) of the transcription initiation site (FIG. 1). A19 base pair sequence containing +46 to +65 of the DJ-1 gene was fused to the luciferase gene to generate the control plasmid (0DJLuc). A neomycin resistance gene was inserted into the vectors as a selection marker. Next, human dopaminergic SH-SY5Y neuroblastoma cells were transfected with either −1000DJLuc or 0DJLuc selected for stably transfected clones. A plasmid encoding β-galactosidase gene was co-transfected to serve as an internal control for luciferase expression.
To confirm the stable expression of the reporter genes and to evaluate these cells as devices for drug discovery, stably transfected SH-SY5Y cells were treated with increasing doses of H2O2. This agent has been reported to upregulate DJ-1. See for example Reference 21. Twenty-four hours after treatment, cells were harvested to analyze luciferase and β-galactosidase activities. Toxicity induced by the higher dose H2O2 was corrected by reduced β-galactosidase activities. […] SH-SY5Y cells stably expressing −1000DJ-Luc and a plasmid encoding CMV-β-galactosidase were treated with the indicated amount of H2O2 for 24 hours. Luciferase and β-galactosidase activities were then determined. Because cellular toxicity increases with increasing H2O2 dosages, luciferase activity was normalized to β-galactosidase activity, with the value of untreated sample designated as 100. The values shown represent the average of 2 experiments carried out in triplicate. (P<0.05 by Anova). The Luciferase activity in control cell lines expressing 0DJ-Luc was not affected by H2O2. To further validate the cells as tools for compound screening, a rational approach to selecting candidate compounds that can transactivate DJ-1 gene based on the analysis of the human DJ-1 promoter was taken.
SH-SY5Y cells stably expressing −1000DJ-Luc were treated with increasing doses of TSA (FIG. 3A) or sodium butyrate (FIG. 3B) for 24 hours. Results were analyzed as described in FIG. 2. DJ-1 promoter-driven luciferase activity was then assayed.
A. Plasmids and Chemicals. DJ-1 promoter sequences from −1000 to +65 relative to the transcriptional initiation site was amplified from pDJ-1(1)luc by PCR with Xho I and Hind III sites using the following primers: DJ-1 F, 5′ […] (SEQ ID NO:); DJ-1 R, 5′ […] (SEQ ID NO:). The PCR product was then inserted into pGL3basic vector (Promega), between Xho I and Hind III sites to generate 1000DJ-Luc vector. For 0DJ-Luc, the sequences from +46 to +65 relative to the transcriptional initiation site were inserted between XhoI and Hind III sites instead. To facilitate selection, a neomycin resistant gene directed by the SV40 promoter with BamHI and Xho I linker was inserted between the BamHI and SalI sites of pGL3 basic, with the original SalI site abolished after ligation. pON260 encoding β-galactosidase gene was described previously. H2O2, Trichostatin A (TSA), and sodium butyrate were obtained from Sigma.
B. Cells and Transfection. The human neuroblastoma cell line SH-SY5Y was plated in 6 well dish at 70% confluency and co-transfected with 150 ng of pON260 and 25 fmol of −1000DJ-Luc or 0DJ-Luc per well with Transfectin reagent (Bio-Rad). 24 hours after transfection, cells were re-plated in 10 cm dishes and cultured in medium with 800 μg/ml of Geneticin (G418, Invitrogen). Three days later, cells were grown in medium containing 400 μg/ml of Geneticin. Surviving clones were cultured, and expanded, and subjected to analysis.
C. Luciferase and β-galactosidase Assays. Cells were treated with the indicated doses of H2O2, TSA or sodium butyrate for 24 hours before being lysed in reporter lysis buffer (Promega). […]

[2] = system: 0DJ-Luc control plasmid (+46 to +65 of the DJ-1 gene); assay: Luciferase activity in control cell lines expressing 0DJ-Luc; type: cell-based, human; conditions: SH-SY5Y 0DJ-Luc cells, 24 hours
Description: as §1
To confirm the stable expression of the reporter genes and to evaluate these cells as devices for drug discovery, stably transfected SH-SY5Y cells were treated with increasing doses of H2O2. This agent has been reported to upregulate DJ-1. See for example Reference 21. Twenty-four hours after treatment, cells were harvested to analyze luciferase and β-galactosidase activities. […] Luciferase and β-galactosidase activities were then determined. […]
C. […] Luciferase and β-galactosidase activities were determined using assay kits following manufacturer's protocol (Promega).

human DJ-1 promoter [3] = assay: DJ-1 luciferase assay in 96-well high throughput format; type: cell-based; conditions: 1000DJ-Luc SH-SY5Y cells, 96-well format, 5 μM, 24 hours, N=12
Method: FIG. 8 is a graph showing the results of a DJ-1 luciferase assay configured as a high throughput screen. Equal numbers of SH-SY5Y cells stably expressing the 1000DJ-Luc construct were plated in replicate (N=12) with 5 μM pergolide, bromocriptine or SAHA for 24 hours and then assayed for luciferase activity. The assay produced a Z′ value of 0.790 using SAHA as the positive and bromocriptine as the negative control.
The assay described above was carried out in a 96-well format. Twelve replicate samples of 1000DJ-Luc cells were each treated with pergolide or bromocriptine, which served as negative controls, or with SAHA, a compound known to increase DJ-1 expression. 5 μM of each compound was added to the cells in a 30 μl volume. Cells were lysed in 100 μl/well of passive lysis buffer, and 20 μl aliquots of the cell lysates were then used for a luciferase assay. Bromocriptine and pergolide are dopamine receptor agonists used for the treatment of motor symptoms in Parkinson's disease. […] In fact, levels of luciferase activity observed with these compounds were very similar to levels present in untreated control cells. […] A Z′ value was calculated using bromocriptine as the negative control. […] See “A Simple Statistical Parameter for Use in Evaluation and Validation of High Throughput Screening Assays” Zhang J H, Chung T D, Oldenburg K R, J Biomol Screen. 1999; 4(2):67-73.

DJ-1 protein [4] = assay: Western blot of DJ-1 protein in mouse embryonic stem cells; type: cell-based; conditions: increasing doses (FIG. 6D)
Method: (§2) SH-SY5Y cells (FIG. 6C), human primary neuronal cultures containing cortical neurons and glia (FIG. 6D), or mouse embryonic stem cells (FIG. 6D) were treated with increasing doses of TSA (0, 50, or 100 ng/ml) and sodium butyrate (0, 2.5, 5, or 10 mM). The cells were then lysed. The protein concentration of each sample was determined using a Protein DC assay (Bio-Rad). Equal amount of proteins (30-40 μg) were resolved by 4-20% Tris-glycine SDS-PAGE in each experiment. Proteins were transferred onto nitrocellulose membranes, and probed with antibodies against DJ-1 (Stressgen) or β-actin (Santa Cruz). DJ-1 protein was then visualized using chemiluminescent detection, ECL WESTERN BLOTTING DETECTION SYSTEM (Amersham, Piscataway, N.J.), according to the manufacturer's instructions.
(§3) Human SH-SY5Y cells, a primary neuronal culture containing dopaminergic neurons and glia, or mouse embryonic stem cells were treated with selected HDAC inhibitors for 24 hours. Cells were then lysed in RIPA-DOC buffer (50 mM Tris, pH 7.2; 150 mM NaCl; 1% Triton-X100, 1% deoxycholate and 0.1% SDS) with 1× fresh protease inhibitor cocktail. For analysis of DJ-1 protein levels in mouse brains, C57BL6 mice were injected intraperitoneally with sodium butyrate (1200 mg/kg) or vehicle (PBS) daily for 14 days. […] Protein concentration of each sample was determined using Protein DC assay (Bio-Rad). […]

DJ-1 protein [5] = assay: Western blot of endogenous DJ-1 protein in SH-SY5Y cells; type: cell-based, human; conditions: for Total endogenous DJ-1 protein levels: SH-SY5Y cells stably expressing −1000DJ-Luc, 24 hours, Western blot (FIG. 4); for DJ-1 protein levels: SH-SY5Y cells, TSA 0, 50, 100 ng/ml, sodium butyrate 0, 2.5, 5, 10 mM (FIG. 6C)
Method: SHSY5Y cells stably expressing −1000DJ-Luc were treated with TSA or sodium butyrate for 24 hours. Total proteins were then extracted and analyzed by SDS-PAGE. After transfer, the membrane was first probed with a mouse monoclonal anti-DJ-1 antibody (1:1000) to reveal DJ-1 expression (Top panel). The membrane was then stripped and re-probed with a goat polyclonal anti-actin (1:1000). Therefore, and without wishing to be bound to theory, it is believed that by activating an anti-oxidative and neuroprotective protein DJ-1, HDAC inhibitors may prevent neuronal cell death in Parkinson disease or other neurodegenerative diseases.
SHSY5Y cells stably expressing −1000DJ-Luc were treated with TSA or sodium butyrate for 24 hours. Total proteins were extracted and analyzed by SDS-PAGE. After transfer, the membrane was first probed with a mouse monoclonal anti-DJ-1 antibody (1:1000) to reveal DJ-1 expression (Top panel). The membrane was then striped and re-probed with a goat polyclonal anti-actin (1:1000).
as §2
Human SH-SY5Y cells, a primary neuronal culture containing dopaminergic neurons and glia, or mouse embryonic stem cells were treated with selected HDAC inhibitors for 24 hours. Cells were then lysed in RIPA-DOC buffer (50 mM Tris, pH 7.2; 150 mM NaCl; 1% Triton-X100, 1% deoxycholate and 0.1% SDS) with 1× fresh protease inhibitor cocktail. For analysis of DJ-1 protein levels in mouse brains, C57BL6 mice were injected intraperitoneally with sodium butyrate (1200 mg/kg) or vehicle (PBS) daily for 14 days. Mice were euthanized and the cortical and midbrain tissues were collected, and snap frozen in liquid nitrogen. Tissues were disrupted in RIPA-DOC buffer with 1× protease inhibitor using Dounce homogenizers. Protein concentration of each sample was determined using Protein DC assay (Bio-Rad). Equal amounts of proteins (30-40 μg) were resolved by 4-20% Tris-glycine SDS-PAGE in each experiment. […]

DJ-1 protein [6] = assay: Western blot of DJ-1 protein in human primary neuronal cultures; type: cell-based; conditions: human primary neuronal cultures containing cortical neurons and glia, increasing doses (FIG. 6D)
Method: as §2, §3

DJ-1 protein [7] = assay: DJ-1 protein levels in mouse brain in vivo (immunoblot); conditions: C57BL6 mice, 1200 mg/kg intraperitoneally daily for fourteen days, cortical and midbrain tissues
Method: For analysis of DJ-1 protein levels in mouse brains, C57BL6 mice were injected intraperitoneally with vehicle (PBS) or sodium butyrate (1200 mg/kg) daily for fourteen days. Mice were euthanized and the cortical and midbrain tissues were collected, and snap frozen in liquid nitrogen. Tissues were disrupted in RIPA-DOC buffer with 1× protease inhibitor using a Dounce homogenizer. The protein concentration of each sample was determined using a Protein DC assay (Bio-Rad). Equal amounts of proteins (30-40 μg) were resolved by 4-20% Tris-glycine SDS-PAGE in each experiment. Proteins were transferred onto nitrocellulose membranes, and probed with antibodies against DJ-1 (Stressgen) or β-actin (Santa Cruz).
as §3

DJ-1 mRNA = DJ-1 mRNA by quantitative real-time PCR in SH-SY5Y cells; type: cell-based, human; conditions: 5 mM, 1-12 hours after treatment
Method: SH-SY5Y cells were treated with 5 mM of sodium butyrate. Cells were then harvested for mRNA one, two, four, eight, and twelve hours after treatment. DJ-1 mRNA levels were quantitated using real-time PCR. DJ-1 mRNA levels were normalized to internal control β-actin mRNA levels.
Total RNA was extracted from the cells treated with sodium butyrate at various time points using Trizol reagent (Invitrogen). The total RNA was then purified with the RNAeasy kit (Qiagen). The quality of the RNA was confirmed using agarose (1%) gel electrophoresis. RNA (1 ng) from each sample was then amplified using Roche LightCycler and Qiagen QuantiTect™ SYBR Green RT-PCR kit according to the manufacturer's instructions. This protocol included: reverse transcription at 50° for 20 minutes, initial activation of Hotstar Taq polymerase at 95° C. for 15 minutes, then 40 cycles of 3-step cycling, including denaturation at 94° C. for 15 seconds; annealing at 58° C. for 20 seconds; extension at 72° C. for 20 sec). A fluorescence detection step was carried out at the end of each cycle. Melting curve analysis (0.1° C. per sec ramping rate, 60-95° C.) was performed with a continuous fluorescence measurement following the 40th cycle. β-actin mRNA was amplified in parallel as an internal control.

| SMILES | DJ-1 promoter-driven luciferase activity normalized to β-galactosidase activity (human DJ-1 promoter [1]) | Luciferase activity in control cell lines expressing 0DJ-Luc [2] | Luciferase expression directed by the human DJ-1 promoter, fold change relative to untreated (human DJ-1 promoter [1]) | Luciferase activity (human DJ-1 promoter [3]) | DJ-1 protein levels (DJ-1 protein [4]) | Total endogenous DJ-1 protein levels (DJ-1 protein [5]) | DJ-1 protein levels (DJ-1 protein [5]) | DJ-1 protein levels (DJ-1 protein [6]) | DJ-1 protein levels in mouse brain (DJ-1 protein [7]) | DJ-1 mRNA levels normalized to β-actin mRNA (DJ-1 mRNA) |
| --- | --- | --- | --- | --- | --- | --- | --- | --- | --- | --- |
| OO [H2O2] | activated the human DJ-1 promoter in a dose dependent manner | not affected |  |  |  |  |  |  |  |  |
| O=C(CCCCCCC(=O)Nc1ccccc1)NO [SAHA, suberoylanilide hydroxamic acid] |  |  | specifically activate luciferase expression | substantial levels of luciferase activity |  |  |  |  |  |  |
| CC(/C=C/C(=O)NO)=C\[C@@H](C)C(=O)c1ccc(N(C)C)cc1 [TSA, Trichostatin A] | significantly activated the DJ-1 promoter |  | specifically activate luciferase expression |  | increased DJ-1 protein levels in a dose dependent fashion | increased markedly | increased DJ-1 protein levels in a dose dependent fashion | increased DJ-1 protein levels in a dose dependent fashion |  |  |
| CCCN1C[C@H](CSC)C[C@@H]2c3cccc4[nH]cc(c34)C[C@H]21 [pergolide] |  |  |  | little luciferase activity |  |  |  |  |  |  |
| CCCC(=O)[O-].[Na+] [sodium butyrate] | significantly activated the DJ-1 promoter |  | specifically activate luciferase expression |  | increased DJ-1 protein levels in a dose dependent fashion | increased markedly | increased DJ-1 protein levels in a dose dependent fashion | increased DJ-1 protein levels in a dose dependent fashion | increased DJ-1 protein levels in mouse brain in vivo | transient increase in DJ-1 mRNA levels |

Reference: patent US20090142753A1, “Compositions and methods for detecting compounds to treat a neurological disorder” (Caritas St. Elizeth Medical Center of Boston, Inc., priority 2005, published 2009)
